# From US20240141330A1, “METHODS AND COMPOSITIONS FOR MUTAGENESIS SCREENING IN MAMMALIAN CELLS” (THE BOARD OF REGENTS OF THE UNIVERSITY OF TEXAS SYSTEM, priority 2021, published 2024)
# Read-outs that look alike come from different tables or passages of the source.
# System: K562 cells harboring doxycycline-inducible BCR-ABL1 variants
# Details: FIG. 7C
# Source text: Values shown are averages±standard error of the mean (SEM) of 2 biological replicates.
# For this example, the K562 CML cell line was used as it harbored the BCR-ABL1 fusion gene/protein and was highly sensitive to BCR-ABL1 inhibitors.
# LentiMutate may create large and small indels because the HIV-1 RT is known to switch templates and have low processivity. […] As a comparison, also tested was the 35INS variant, a BCR-ABL variant detected in patient samples that truncates BCR-ABL at the end of the kinase domain, producing a kinase dead protein, due to the insertion and usage of a 35 bp sequence in an intron that acts as a novel splicing site.
compound,measurement,setting,value
O=C(Nc1ccc(OC(F)(F)Cl)cc1)c1cnc(N2CC[C@@H](O)C2)c(-c2cc[nH]n2)c1 [asciminib],Resistance conferred by BCR-ABL1 variant,deletions in ABL1 (−SV11),did not
same,Resistance conferred by BCR-ABL1 variant,deletions in BCR (−SV8 and −NTCD),conferred resistance
